# Biological target: Aβ42 (Homo sapiens, UniProt P05067)
# Assay: Th-T (thioflavin-T) assay of Aβ42 aggregation
# Assay type: biochemical
# Conditions: for Th-T fluorescence, mean of three wells: Aβ42 aggregation time course
# Aβ42, sequence (P05067 672-713): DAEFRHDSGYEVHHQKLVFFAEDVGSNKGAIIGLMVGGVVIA
compound,measurement,setting,value
C=C1CC[C@@H]2[C@](C)(CC[C@H]3O[C@H](C=C(C)C)C[C@@]23C)[C@@H]1Cc1c(OC)oc(CO)c(C(=O)OC)c1=O [Compound 21],first Th-T assay result,"Aβ42 (10 μM) ± DPPs (20 μM), room temperature",clearly delayed nuclei formation of Aβ42
same,"Th-T fluorescence, mean of three wells",reading M117,1.039
same,"Th-T fluorescence, mean of three wells",reading M118,1.038
same,"Th-T fluorescence, mean of three wells",reading M119,1.047
same,"Th-T fluorescence, mean of three wells",reading M120,1.046
same,"Th-T fluorescence, mean of three wells",reading M121,1.028
same,"Th-T fluorescence, mean of three wells",reading M122,1.042
same,"Th-T fluorescence, mean of three wells",reading M123,1.04
same,"Th-T fluorescence, mean of three wells",reading M124,1.043
same,"Th-T fluorescence, mean of three wells",reading M125,1.031
same,"Th-T fluorescence, mean of three wells",reading M126,1.048
same,"Th-T fluorescence, mean of three wells",reading M127,1.027
same,"Th-T fluorescence, mean of three wells",reading M128,1.04
same,"Th-T fluorescence, mean of three wells",reading M129,1.041
same,"Th-T fluorescence, mean of three wells",reading M130,1.048
same,nucleation phase of Aβ42 delayed until,Th-T fluorescence of Aβ42 alone began to increase after 4 h,13 h
same,"Th-T fluorescence, mean of three wells (Fig. 7a)","column suffix _10, measurement M19",0.2262
same,"Th-T fluorescence, mean of three wells (Fig. 7a)","column suffix _10, measurement M20",0.2276
same,"Th-T fluorescence, mean of three wells (Fig. 7a)","column suffix _10, measurement M21",0.2311
same,"Th-T fluorescence, mean of three wells (Fig. 7a)","column suffix _10, measurement M22",0.2318
same,"Th-T fluorescence, mean of three wells (Fig. 7a)","column suffix _10, measurement M23",0.2319
same,"Th-T fluorescence, mean of three wells (Fig. 7a)","column suffix _10, measurement M24",0.2323
same,"Th-T fluorescence, mean of three wells (Fig. 7a)","column suffix _10, measurement M25",0.2332
same,"Th-T fluorescence, mean of three wells (Fig. 7a)","column suffix _10, measurement M26",0.2371
same,"Th-T fluorescence, mean of three wells (Fig. 7a)","column suffix _10, measurement M27",0.238
same,"Th-T fluorescence, mean of three wells (Fig. 7a)","column suffix _10, measurement M28",0.2386
same,"Th-T fluorescence, mean of three wells (Fig. 7a)","column suffix _10, measurement M29",0.2373
same,"Th-T fluorescence, mean of three wells (Fig. 7a)","column suffix _10, measurement M30",0.2428
same,"Th-T assay signal, mean of three wells (Fig. 7a)","column suffix _10, reading M1",0.2407
same,"Th-T assay signal, mean of three wells (Fig. 7a)","column suffix _10, reading M2",0.2463
same,"Th-T assay signal, mean of three wells (Fig. 7a)","column suffix _10, reading M3",0.2449
same,"Th-T assay signal, mean of three wells (Fig. 7a)","column suffix _10, reading M4",0.2384
same,"Th-T assay signal, mean of three wells (Fig. 7a)","column suffix _10, reading M5",0.2363
same,"Th-T assay signal, mean of three wells (Fig. 7a)","column suffix _10, reading M6",0.2279
same,"Th-T assay signal, mean of three wells (Fig. 7a)","column suffix _10, reading M7",0.2237
same,"Th-T assay signal, mean of three wells (Fig. 7a)","column suffix _10, reading M8",0.2225
same,"Th-T assay signal, mean of three wells (Fig. 7a)","column suffix _10, reading M9",0.2211
same,"Th-T assay signal, mean of three wells (Fig. 7a)","column suffix _10, reading M10",0.2184
same,"Th-T assay signal, mean of three wells (Fig. 7a)","column suffix _10, reading M11",0.2174
same,"Th-T assay signal, mean of three wells (Fig. 7a)","column suffix _10, reading M12",0.2206
same,"Th-T assay signal, mean of three wells (Fig. 7a)","column suffix _10, reading M13",0.2193
same,"Th-T assay signal, mean of three wells (Fig. 7a)","column suffix _10, reading M14",0.2201
same,"Th-T assay signal, mean of three wells (Fig. 7a)","column suffix _10, reading M15",0.222
same,"Th-T assay signal, mean of three wells (Fig. 7a)","column suffix _10, reading M16",0.2237
same,"Th-T assay signal, mean of three wells (Fig. 7a)","column suffix _10, reading M17",0.228
same,"Th-T assay signal, mean of three wells (Fig. 7a)","column suffix _10, reading M18",0.2253
same,"Fig. 7a Th-T reading, mean of three wells","column suffix _10, reading M85",1.478
same,"Fig. 7a Th-T reading, mean of three wells","column suffix _10, reading M86",1.509
same,"Fig. 7a Th-T reading, mean of three wells","column suffix _10, reading M87",1.557
same,"Fig. 7a Th-T reading, mean of three wells","column suffix _10, reading M88",1.549
same,"Fig. 7a Th-T reading, mean of three wells","column suffix _10, reading M89",1.5658
same,"Fig. 7a Th-T reading, mean of three wells","column suffix _10, reading M90",1.591
same,"Fig. 7a Th-T reading, mean of three wells","column suffix _10, reading M91",1.5663
same,"Fig. 7a Th-T reading, mean of three wells","column suffix _10, reading M92",1.592
same,"Fig. 7a Th-T reading, mean of three wells","column suffix _10, reading M93",1.631
same,"Fig. 7a Th-T reading, mean of three wells","column suffix _10, reading M94",1.598
same,"Fig. 7a Th-T reading, mean of three wells","column suffix _10, reading M95",1.661
same,"Fig. 7a Th-T reading, mean of three wells","column suffix _10, reading M96",1.586
same,"Fig. 7a Th-T reading, mean of three wells","column suffix _10, reading M97",1.595
same,"Fig. 7a Th-T reading, mean of three wells","column suffix _10, reading M98",1.638
same,"Fig. 7a Th-T reading, mean of three wells","column suffix _10, reading M99",1.631
same,"Fig. 7a Th-T reading, mean of three wells","column suffix _10, reading M100",1.623
same,"Fig. 7a Th-T reading, mean of three wells","column suffix _10, reading M101",1.644
same,"Fig. 7a Th-T reading, mean of three wells","column suffix _10, reading M102",1.607
same,"Fig. 7a Th-T reading, mean of three wells","column suffix _10, reading M103",1.621
same,"Fig. 7a Th-T reading, mean of three wells","column suffix _10, reading M104",1.621
same,"Fig. 7a Th-T reading, mean of three wells","column suffix _10, reading M105",1.667
same,"Fig. 7a Th-T reading, mean of three wells","column suffix _10, reading M106",1.671
same,"Th-T fluorescence, mean of three wells (Fig. 7a)","column suffix _20, measurement M19",0.1942
same,"Th-T fluorescence, mean of three wells (Fig. 7a)","column suffix _20, measurement M20",0.198
same,"Th-T fluorescence, mean of three wells (Fig. 7a)","column suffix _20, measurement M21",0.1975
same,"Th-T fluorescence, mean of three wells (Fig. 7a)","column suffix _20, measurement M22",0.1979
same,"Th-T fluorescence, mean of three wells (Fig. 7a)","column suffix _20, measurement M23",0.1984
same,"Th-T fluorescence, mean of three wells (Fig. 7a)","column suffix _20, measurement M24",0.2012
same,"Th-T fluorescence, mean of three wells (Fig. 7a)","column suffix _20, measurement M25",0.2016
same,"Th-T fluorescence, mean of three wells (Fig. 7a)","column suffix _20, measurement M26",0.2021
same,"Th-T fluorescence, mean of three wells (Fig. 7a)","column suffix _20, measurement M27",0.2014
same,"Th-T fluorescence, mean of three wells (Fig. 7a)","column suffix _20, measurement M28",0.2017
same,"Th-T fluorescence, mean of three wells (Fig. 7a)","column suffix _20, measurement M29",0.2027
same,"Th-T assay signal, mean of three wells (Fig. 7a)","column suffix _20, reading M1",0.2262
same,"Th-T assay signal, mean of three wells (Fig. 7a)","column suffix _20, reading M2",0.223
same,"Th-T assay signal, mean of three wells (Fig. 7a)","column suffix _20, reading M3",0.2155
same,"Th-T assay signal, mean of three wells (Fig. 7a)","column suffix _20, reading M4",0.2051
same,"Th-T assay signal, mean of three wells (Fig. 7a)","column suffix _20, reading M5",0.2019
same,"Th-T assay signal, mean of three wells (Fig. 7a)","column suffix _20, reading M6",0.1953
same,"Th-T assay signal, mean of three wells (Fig. 7a)","column suffix _20, reading M7",0.1945
same,"Th-T assay signal, mean of three wells (Fig. 7a)","column suffix _20, reading M8",0.1954
same,"Th-T assay signal, mean of three wells (Fig. 7a)","column suffix _20, reading M9",0.1943
same,"Th-T assay signal, mean of three wells (Fig. 7a)","column suffix _20, reading M10",0.1989
same,"Th-T assay signal, mean of three wells (Fig. 7a)","column suffix _20, reading M11",0.1963
same,"Th-T assay signal, mean of three wells (Fig. 7a)","column suffix _20, reading M12",0.198
same,"Th-T assay signal, mean of three wells (Fig. 7a)","column suffix _20, reading M13",0.1957
same,"Th-T assay signal, mean of three wells (Fig. 7a)","column suffix _20, reading M14",0.1953
same,"Th-T assay signal, mean of three wells (Fig. 7a)","column suffix _20, reading M15",0.1958
same,"Th-T assay signal, mean of three wells (Fig. 7a)","column suffix _20, reading M16",0.1968
same,"Th-T assay signal, mean of three wells (Fig. 7a)","column suffix _20, reading M17",0.1967
same,"Th-T assay signal, mean of three wells (Fig. 7a)","column suffix _20, reading M18",0.1963
same,"Fig. 7a Th-T reading, mean of three wells","column suffix _20, reading M85",0.5666
same,"Fig. 7a Th-T reading, mean of three wells","column suffix _20, reading M86",0.5976
same,"Fig. 7a Th-T reading, mean of three wells","column suffix _20, reading M87",0.6445
same,"Fig. 7a Th-T reading, mean of three wells","column suffix _20, reading M88",0.6876
same,"Fig. 7a Th-T reading, mean of three wells","column suffix _20, reading M89",0.7312
same,"Fig. 7a Th-T reading, mean of three wells","column suffix _20, reading M90",0.7695
same,"Fig. 7a Th-T reading, mean of three wells","column suffix _20, reading M91",0.7994
same,"Fig. 7a Th-T reading, mean of three wells","column suffix _20, reading M92",0.8356
same,"Fig. 7a Th-T reading, mean of three wells","column suffix _20, reading M93",0.8329
same,"Fig. 7a Th-T reading, mean of three wells","column suffix _20, reading M94",0.8638
same,"Fig. 7a Th-T reading, mean of three wells","column suffix _20, reading M95",0.8786
same,"Fig. 7a Th-T reading, mean of three wells","column suffix _20, reading M96",0.9004
same,"Fig. 7a Th-T reading, mean of three wells","column suffix _20, reading M97",0.8843
same,"Fig. 7a Th-T reading, mean of three wells","column suffix _20, reading M98",0.903
same,"Fig. 7a Th-T reading, mean of three wells","column suffix _20, reading M99",0.9153
same,"Fig. 7a Th-T reading, mean of three wells","column suffix _20, reading M100",0.9048
